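Tested at 5 concentrations; 48 h exposure; 96-well plates; endpoints linearly interpolated, else capped at highest concentration. TGI denotes the concentration required for complete inhibition of growth.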
How the values were obtained:
Test in all cases: NCI tumour cell line growth inhibition, 48 h
UACC-257 melanoma = test system: UACC-257 melanoma
SK-MEL-5 melanoma = test system: SK-MEL-5 melanoma
DU-145 prostate = test system: DU-145 prostate
SR leukemia = test system: SR leukemia
COLO 205 colon = test system: COLO 205 colon
A498 renal = test system: A498 renal
K-562 leukemia = test system: K-562 leukemia
NCI-H460 lung = test system: NCI-H460 lung
UACC-62 melanoma = test system: UACC-62 melanoma
PC-3 prostate = test system: PC-3 prostate
MOLT-4 leukemia = test system: MOLT-4 leukemia
HT29 colon = test system: HT29 colon
RXF 393 renal = test system: RXF 393 renal
RPMI-8226 leukemia = test system: RPMI-8226 leukemia
CCRF-CEM leukemia = test system: CCRF-CEM leukemia
HCT-15 colon = test system: HCT-15 colon
TK-10 renal = test system: TK-10 renal
NCI-H226 lung = test system: NCI-H226 lung
ACHN renal = test system: ACHN renal
M14 melanoma = test system: M14 melanoma
NCI-H23 lung = test system: NCI-H23 lung
KM12 colon = test system: KM12 colon
HS 578T breast = test system: HS 578T breast
MCF7 breast = test system: MCF7 breast
SNB-19 CNS = test system: SNB-19 CNS
EKVX NSCLC = test system: EKVX NSCLC
SF-539 CNS = test system: SF-539 CNS
786-0 renal = test system: 786-0 renal
SN12C renal = test system: SN12C renal
HOP-62 NSCLC = test system: HOP-62 NSCLC
UO-31 renal = test system: UO-31 renal
OVCAR-8 ovarian = test system: OVCAR-8 ovarian
SF-268 CNS = test system: SF-268 CNS
OVCAR-5 ovarian = test system: OVCAR-5 ovarian
MDA-N = test system: MDA-N
U251 CNS = test system: U251 CNS
HCC-2998 colon = test system: HCC-2998 colon
SNB-75 CNS = test system: SNB-75 CNS
LOX IMVI melanoma = test system: LOX IMVI melanoma
SW-620 colon = test system: SW-620 colon
NCI/ADR-RES ovarian = test system: NCI/ADR-RES ovarian
HOP-92 NSCLC = test system: HOP-92 NSCLC
SK-OV-3 ovarian = test system: SK-OV-3 ovarian
SK-MEL-2 melanoma = test system: SK-MEL-2 melanoma
CAKI-1 renal = test system: CAKI-1 renal
HL-60(TB) leukemia = test system: HL-60(TB) leukemia
A549 NSCLC = test system: A549 NSCLC
IGROV1 ovarian = test system: IGROV1 ovarian
MDA-MB-435 = test system: MDA-MB-435
MDA-MB-231 breast = test system: MDA-MB-231 breast
SF-295 CNS = test system: SF-295 CNS
SK-MEL-28 melanoma = test system: SK-MEL-28 melanoma
NCI-H522 lung = test system: NCI-H522 lung
BT-549 breast = test system: BT-549 breast
OVCAR-3 ovarian = test system: OVCAR-3 ovarian
OVCAR-4 ovarian = test system: OVCAR-4 ovarian
HCT-116 colon = test system: HCT-116 colon

Measured: TGI

O=C(/C=C\c1ccc(-c2ccccc2)cc1)c1cccs1
12.5 µM: CCRF-CEM leukemia
> 60.4 µM: SNB-75 CNS
> 31 µM: HL-60(TB) leukemia
> 27.1 µM: A498 renal
> 81 µM: HS 578T breast
> 75 µM: SF-268 CNS
46.4 µM: RXF 393 renal
> 50.3 µM: HT29 colon
> 94.3 µM: IGROV1 ovarian
> 28.1 µM: MOLT-4 leukemia
> 30.4 µM: NCI-H522 lung
> 100 µM: all other assays above

Source: PubChem BioAssay (NCI)
